59 compounds from patent publication US5948786A, “Piperidinylpyrimidine derivatives” (Sumitomo Pharmaceuticals Company, Limited, priority 1996, dated 1999) can be followed below.

Molecules are shown by their SMILES.

In the experiment the test system is TNF α production from mouse macrophages. Put plainly: Inhibitory activity of compound on TNF α Production from mouse macrophages (LPS-induced PEC's). The format is cell-based. Conditions: Macrophage, LPS 10 μg/ml, 18 hours. The method, then: BALB/c mice (female, 5-7 weeks old, Charles River Japan, Tokyo, Japan) were injected i.p. with 1 ml of 2.4% thioglycollate broth. After 4 days, the mice were sacrificed. Peritoneal exudated cells (PEC's) were collected from the peritoneal cavity by washing with minimum essential medium (MEM, Handai biseibutubyou kenkyukai, Osaka, Japan) containing 5 U/ml heparin, 1% fetal bovine serum (FBS, Filtron, Victoria, Australia) and antibiotics. The cells were washed two times with MEM, suspended with MEM containing 10% FBS (complete MEM, cMEM) and seeded into 96-well culture plates (Costar, Cambridge, Mass., USA) at 2×10^5 cells/well. The cells were incubated for 1 hour at 37° C. in a humidified 5% CO2 incubator and washed two times to remove non-adherent cells.
TNF α was induced by 10 μg/ml of LPS (E. coli O111B4, DIFCO, Detroit, Mich., USA) the cells were cultured for 18 hours at 37° C. A compound of the present invention was dissolved in DMSO and added to the culture simultaneously with LPS. The final DMSO concentration was below 0.1%. The TNF α concentration in supernatant and recombinant mouse TNF α standard (rm-TNF α, Genzyme, Mass., USA) were incubated overnight at 4° C. in a 96-well plate coated with anti-mouse TNF α monoclonal antibody (PharMingen, San Diego, Calif., USA) that previously had been blocked with 10% FBS. Each well of the plate first was incubated at room temperature with biotinylated anti-mouse TNF α polyclonal antibodies (PharMingen) for 45 minutes, then with peroxidase-conjugated streptavidin (Kirkegaard & Perry Laboratories Inc., Gaitherburg, Md., USA) for 30 minutes. After each incubation, the plate was washed 4 to 8 times with PBS containing 0.2% Tween 20. TMB (Kirkegaard & Perry Laboratories Inc.) was the peroxidase substrate used and, the absorbance of each well was quantified at 450 nm by a microplatereader (Molecular Devices Corp., CA, USA). TNF α levels in the supernatant were quantified with rm-TNF α as the standard.
With `COc1ccccc1CC(=O)N1CCC(c2nc(N)nc3ccccc23)CC1` [Example 77], the inhibition – broadly, the relative decrease from the control value, in per cent – at 30 µM was 27%. Under `COc1ccc(Cc2cc(C3CCN(C(=O)Cc4ccc(OC)c(OC)c4)CC3)nc(N)n2)cc1` [Example 237] stands 87%. On to `Nc1nc(C2CCN(C(=O)CCCCCCCCCO)CC2)c2ccccc2n1` [Example 30], for which the inhibition at 30 µM came out at 64%.

`COc1ccc(Cc2cc(C3CCN(C(=O)c4cccnc4)CC3)nc(N)n2)cc1` [Example 195]: the inhibition at 30 µM stood at 29%. `CCCCCCCC(=O)N1CCC(c2nc(N)nc3ccc(Cl)cc23)CC1` [Example 127]: the inhibition at 30 µM was found to be 48%.

Turning to `COc1ccc(Cc2cc(C3CCN(C(=O)c4c(Cl)ccc(Cl)c4Cl)CC3)nc(N)n2)cc1` [Example 219], the inhibition at 30 µM amounted to 75%. Under `Nc1nc(CCc2ccccc2)cc(C2CCN(C(=O)Cc3ccc([N+](=O)[O-])cc3)CC2)n1` [Example 263] stands 37%; under `COc1ccc(Cc2cc(C3CCN(C(=O)Cc4cccc(Cl)c4)CC3)nc(N)n2)cc1` [Example 226], 69%; under `Nc1nc(-c2ccc(Cl)cc2)cc(C2CCN(C(=O)c3ccccc3)CC2)n1` [Example 6, 2-Amino-4-(1-benzoyl-4-piperidinyl)-6-(4-chlorophenyl)pyrimidine], 78%. Then `CCCCCCCCC(=O)N1CCC(c2nc(N)nc3ccccc23)CC1` [Example 22], with 64%. Under `Nc1nc(C2CCN(C(=O)Cc3ccc(Cl)cc3)CC2)c2ccccc2n1` [Example 82] stands 59%. As to `COc1ccc(C(=O)N2CCC(c3nc(N)nc4ccccc34)CC2)cc1OC` [Example 56], the inhibition at 30 µM is -28%. Under `Nc1nc(C2CCN(C(=O)c3cc(Cl)ccc3Cl)CC2)c2ccccc2n1` [Example 60] stands 73%; under `CCCCCCCC(=O)N1CCC(c2cc(-c3ccc(OC)cc3)nc(N)n2)CC1` [Example 154], 86%; under `COc1ccc(Cc2cc(C3CCN(C(=O)c4ccccn4)CC3)nc(N)n2)cc1` [Example 194], 9%. Under `COc1ccc(Cc2cc(C3CCN(C(=O)c4ccc(OC)cc4)CC3)nc(N)n2)cc1` [Example 180] stands 70%; under `CC(C)(C)OC(=O)NCCCCCCCC(=O)N1CCC(c2nc(N)nc3ccccc23)CC1` [Example 28, 2-amino-4-[1-(8-t-butoxycarbonylaminooctanoyl)-4-piperidinyl]quinazoline], 100%. For `COc1cccc(CC(=O)N2CCC(c3nc(N)nc4ccccc34)CC2)c1` [Example 78], the inhibition at 30 µM was found to be 10%.

On to `Nc1nc(C2CCN(C(=O)c3ccc(Cl)cc3Cl)CC2)c2ccccc2n1` [Example 59], for which the inhibition at 30 µM was determined as 56%. Turning to `Nc1nc(C2CCN(C(=O)Cc3ccccc3Cl)CC2)c2ccccc2n1` [Example 80], the inhibition at 30 µM was 28%. For the compound `COc1ccc(Cc2cc(C3CCN(C(=O)c4c(Cl)cc(Cl)cc4Cl)CC3)nc(N)n2)cc1` [Example 220], the inhibition at 30 µM was found to be 75%. `COc1ccc(Cc2cc(C3CCN(C(=O)Cc4ccc(Cl)cc4Cl)CC3)nc(N)n2)cc1` [Example 239]: the inhibition at 30 µM worked out at 99%. Under `COc1ccc(Cc2cc(C3CCN(C(=O)c4ccc([N+](=O)[O-])cc4)CC3)nc(N)n2)cc1` [Example 186] stands 67%; under `COc1ccc(Cc2cc(C3CCN(C(=O)Cc4c(Cl)ccc(Cl)c4Cl)CC3)nc(N)n2)cc1` [Example 244], 98%; under `CCCCCCC(=O)N1CCC(c2nc(N)nc3ccccc23)CC1` [Example 20], 63%. For `Nc1nc(C2CCN(C(=O)c3cccc([N+](=O)[O-])c3)CC2)c2ccccc2n1` [Example 39], the inhibition at 30 µM is 12%.

With `COc1ccc(Cc2cc(C3CCN(C(=O)Cc4ccc(Cl)cc4)CC3)nc(N)n2)cc1` [Example 227], the inhibition at 30 µM was 63%. Then `CCCCCCCCC(=O)N1CCC(c2nc(N)nc3ccc(OC)cc23)CC1` [Example 105], with 54%. Then `COc1ccc(Cc2cc(C3CCN(C(=O)c4cccc5ccccc45)CC3)nc(N)n2)cc1` [Example 211], with 80%; and `Nc1nc(C2CCN(C(=O)NCc3ccccc3)CC2)c2ccccc2n1` [Example 280, 2-amino-4-(1-benzyl-carbamoyl-4-piperidinyl)quinazoline], with 34%. As for `CCCCC(=O)N1CCC(c2cc(Cc3ccc(OC)cc3)nc(N)n2)CC1` [Example 165], the inhibition at 30 µM was 41%. Then `COc1ccc(CC(=O)N2CCC(c3cc(-c4ccc(Cl)cc4)nc(N)n3)CC2)cc1` [Example 151], with 70%; and `COc1ccc(Cc2cc(C3CCN(C(C)=O)CC3)nc(N)n2)cc1` [Example 162], with 61%. Under `Nc1nc(C2CCN(C(=O)c3cc(Cl)cc(Cl)c3Cl)CC2)c2ccccc2n1` [Example 73] stands 23%; under `CCCC(=O)N1CCC(c2cc(Cc3ccc(OC)cc3)nc(N)n2)CC1` [Example 164], 43%; under `COc1ccc(CC(=O)N2CCC(c3cc(Cc4ccc(Cl)cc4)nc(N)n3)CC2)cc1` [Example 251], 98%. Then `COc1ccc(-c2cc(C3CCN(C(=O)Cc4ccc([N+](=O)[O-])cc4)CC3)nc(N)n2)cc1` [Example 160], with 57%; and `COc1ccc2nc(N)nc(C3CCN(C(=O)c4ccc([N+](=O)[O-])cc4)CC3)c2c1` [Example 116], with 23%. For the compound `COc1ccc(Cc2cc(C3CCN(C(=O)c4ccc(Cl)c(Cl)c4)CC3)nc(N)n2)cc1` [Example 207], the inhibition at 30 µM turned out to be 76%. With `COc1ccc2nc(N)nc(C3CCN(C(=O)Cc4ccc([N+](=O)[O-])cc4)CC3)c2c1` [Example 126], the inhibition at 30 µM stood at 43%.

In the case of `CCCCCCC(=O)N1CCC(c2nc(N)nc3ccc(OC)cc23)CC1` [Example 103], the inhibition at 30 µM came to 44%. With `COc1ccc(Cc2cc(C3CCN(C(=O)CCNC(=O)OC(C)(C)C)CC3)nc(N)n2)cc1` [Example 176, 2-amino-4-[1-(3-t-butoxycarbonylaminopropanoyl)-4-piperidinyl]-6-(4-methoxyphenylmethyl)pyrimidine], the inhibition at 30 µM turned out to be 60%. Take `Nc1nc(C2CCN(C(=O)c3ccc(Cl)c(Cl)c3)CC2)c2ccccc2n1` [Example 62]: the inhibition at 30 µM turned out to be 55%.

In the case of `COc1ccc(CC(=O)N2CCC(c3cc(-c4ccc(OC)cc4)nc(N)n3)CC2)cc1` [Example 158], the inhibition at 30 µM was found to be 61%. For `CCCCCCCCC(=O)N1CCC(c2cc(-c3ccccc3)nc(N)n2)CC1` [Example 137], the inhibition at 30 µM is 67%.

For `CCCCCCCC(=O)N1CCC(c2cc(-c3ccccc3)nc(N)n2)CC1` [Example 136], the inhibition at 30 µM is 48%. In the case of `CCCCCCCCCC(=O)N1CCC(c2nc(N)nc3ccccc23)CC1` [Example 23], the inhibition at 30 µM came to 67%. Turning to `COc1ccc(-c2cc(C3CCN(C(=O)Cc4ccc(Cl)cc4)CC3)nc(N)n2)cc1` [Example 159], the inhibition at 30 µM is 75%.

On to `Nc1nc(Cc2ccc(Cl)cc2)cc(C2CCN(C(=O)Cc3ccc(Cl)cc3)CC2)n1` [Example 252], for which the inhibition at 30 µM came to 96%.

As to `COc1ccc(Cc2cc(C3CCN(C(=O)Cc4ccc([N+](=O)[O-])cc4)CC3)nc(N)n2)cc1` [Example 233], the inhibition at 30 µM came out at 54%.

As to `CC(C)(C)OC(=O)NCCCCCCCCCCC(=O)N1CCC(c2nc(N)nc3ccccc23)CC1` [Example 29, 2-amino-4-[1-(11-t-butoxycarbonylaminoundecanoyl)-4-piperidinyl]quinazoline], the inhibition at 30 µM was 100%. As to `CCCCCCCCCC(=O)N1CCC(c2cc(-c3ccccc3)nc(N)n2)CC1` [Example 138], the inhibition at 30 µM is 70%.

`COc1ccc(-c2cc(C3CCN(C(=O)c4ccccc4)CC3)nc(N)n2)cc1` [Example 5, 2-Amino-4-(1-benzoyl-4-piperidinyl)-6-(4-methoxyphenyl)pyrimidine]: the inhibition at 30 µM worked out at 57%. Consider `CCC(=O)N1CCC(c2cc(Cc3ccc(OC)cc3)nc(N)n2)CC1` [Example 163], for which the inhibition at 30 µM was determined as 79%. Turning to `COc1ccc(OC)c(C(=O)N2CCC(c3nc(N)nc4ccccc34)CC2)c1OC` [Example 69], the inhibition at 30 µM was -95%.

As to `CCCCCCCCC(=O)N1CCC(c2cc(-c3ccc(OC)cc3)nc(N)n2)CC1` [Example 155], the inhibition at 30 µM stood at 76%.

In the case of `CCCCCCCCCCC(=O)N1CCC(c2nc(N)nc3ccccc23)CC1` [Example 24], the inhibition at 30 µM came out at 70%. Under `Nc1nc(C2CCN(C(=O)Cc3ccc(Cl)c(Cl)c3)CC2)c2ccccc2n1` [Example 96] stands 100%.

Turning to `Nc1nc(C2CCN(C(=O)Cc3ccc(Cl)cc3)CC2)c2cc(Cl)ccc2n1` [Example 132], the inhibition at 30 µM was found to be 55%.
